Structures are written as SMILES.

Chain of PD-1/PD-L1 (Q9NZQ7 19-238): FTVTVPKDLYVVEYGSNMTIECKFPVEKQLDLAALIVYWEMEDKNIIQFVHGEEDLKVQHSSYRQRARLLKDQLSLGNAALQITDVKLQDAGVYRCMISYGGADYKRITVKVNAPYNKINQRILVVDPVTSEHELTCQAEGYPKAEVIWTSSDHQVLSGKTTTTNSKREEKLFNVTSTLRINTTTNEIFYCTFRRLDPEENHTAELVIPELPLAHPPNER

The target in the assay is PD-1/PD-L1 (Homo sapiens (Human), UniProt Q9NZQ7). Put plainly: PD-1/PD-L1 Homogeneous Time-Resolved Fluorescence (HTRF) binding assay. As to conditions: 3 nM PD1, 10 nM PD-L1, 25° C., PBS pH 7.4. As to the method:
PD-1/PD-L1 Homogeneous Time-Resolved Fluorescence (HTRF) Binding Assay
The assays were conducted in a standard black 384-well polystyrene plate with a final volume of 20 μL. Inhibitors were first serially diluted in DMSO and then added to the plate wells before the addition of other reaction components. The final concentration of DMSO in the assay was 1%. The assays were carried out at 25° C. in the PBS buffer (pH 7.4) with 0.05% Tween-20 and 0.1% BSA. Recombinant human PD-L1 protein (19-238) with a Histag at the C-terminus was purchased from AcroBiosystems (PD1-H5229). Recombinant human PD-1 protein (25-167) with Fe tag at the C-terminus was also purchased from AcroBiosystems (PD1-H5257). PD-L1 and PD-1 proteins were diluted in the assay buffer and 10 μL was added to the plate well. Plates were centrifuged and proteins were preincubated with inhibitors for 40 minutes. The incubation was followed by the addition of 10 μL of HTRF detection buffer supplemented with Europium cryptate-labeled anti-human IgG (PerkinElmer-AD0212) specific for Fe and anti-His antibody conjugated to SureLight®-Allophycocyanin (APC, PerkinElmer-AD0059H). After centrifugation, the plate was incubated at 25° C. for 60 min. before reading on a PHERAstar FS plate reader (665 nm/620 nm ratio). Final concentrations in the assay were—3 nM PD1, 10 nM PD-L1, 1 nM europium anti-human IgG and 20 nM anti-His-Allophycocyanin. IC50 determination was performed by fitting the curve of percent control activity versus the log of the inhibitor concentration.
(Time-resolved FRET reads energy transfer from a long-lived donor to a nearby acceptor.)
What is called IC50 is the point on the concentration scale where inhibition reaches its midpoint. `O=C1CC[C@@H](CN2C(=O)CCc3cc(-c4cccc(-c5cccc(-c6ccc7c(c6)CCC(=O)N7C[C@@H]6CCC(=O)N6)c5Cl)c4Cl)ccc32)N1` [Compound 281, 6,6′-(2,2′-dichloro-[1,1′-biphenyl]-3,3′-diyl)bis(1-(((S)-5-oxopyrrolidin-2-yl)methyl)-3,4-dihydroquinolin-2(1H)-one)]: the IC50 is 0.0267 µM. This lies in the double-digit nanomolar range.

`O=C1CC[C@@H](CN2CCCc3cc(-c4cccc(-c5cccc(-c6ccc7c(c6)CCCN7C[C@@H]6CCC(=O)N6)c5Cl)c4Cl)ccc32)N1` [Compound 303]: the IC50 was found to be 0.187 µM. This IC50 lies about 7-fold higher than the previous one.

Consider `Nc1cc2c(cc1-c1cccc(-c3cccc(-c4cc5c(cc4N)N(C[C@@H]4CCC(=O)N4)C(=O)CO5)c3Cl)c1Cl)OCC(=O)N2C[C@@H]1CCC(=O)N1` [Compound 354], for which the half-maximal inhibitory concentration (IC50) was 2.18 µM.

With `O=C1CC[C@@H](Cn2c(=O)cnc3cc(-c4cccc(-c5cccc(-c6ccc7c(c6)ncc(=O)n7C[C@@H]6CCC(=O)N6)c5Cl)c4Cl)ccc32)N1` [Compound 361], the IC50 was determined as 0.00175 µM.

Regarding `CC1(C)Oc2cc(-c3cccc(-c4cccc(-c5ccc6c(c5)OC(C)(C)C(=O)N6C[C@@H]5CCC(=O)N5)c4Cl)c3Cl)ccc2N(C[C@@H]2CCC(=O)N2)C1=O` [Compound 372], the IC50 is at least 3 µM.

`O=C1COc2cc(-c3cccc(-c4cccc(-c5ccc6c(c5)OCC(=O)N6CCn5cncn5)c4Cl)c3Cl)ccc2N1CCn1cncn1` [Compound 374] yielded an IC50 of 0.0682 µM.

On to `O=C1COc2cc(-c3cccc(-c4cccc(-c5ccc6c(c5)OCC(=O)N6CCn5cccn5)c4Cl)c3Cl)ccc2N1CCn1cccn1` [Compound 375], for which the IC50 came out at 2.71 µM.

Molecule `O=C1CC[C@@H](CN2C(=O)COc3cc(-c4cccc(-c5cccc(-c6cc(Cl)c7c(c6)OCC(=O)N7C[C@@H]6CCC(=O)N6)c5Cl)c4Cl)cc(Cl)c32)N1` [Compound 376] came in with an IC50 of 0.2 µM.

In the case of `O=C1COc2cc(-c3cccc(-c4cccc(-c5ccc6c(c5)OCC(=O)N6CCO)c4Cl)c3Cl)ccc2N1CCO` [Compound 378], the concentration for half-maximal inhibition (IC50) was 0.0697 µM.

The molecule `CC1(C)Cc2cc(-c3cccc(-c4cccc(-c5cnc6c(c5)OC(C)(C)C(=O)N6C[C@@H]5CCC(=O)N5)c4Cl)c3Cl)cnc2N(C[C@@H]2CCC(=O)N2)C1=O` [Compound 382] displayed an IC50 of at least 3 µM.

Molecule `O=C1NCCN1CCN1C(=O)COc2cc(-c3cccc(-c4cccc(-c5ccc6c(c5)OCC(=O)N6CCN5CCNC5=O)c4Cl)c3Cl)ccc21` [Compound 384] had an IC50 of 0.26 µM.

For `O=C1COc2cc(-c3cccc(-c4cccc(-c5ccc6c(c5)OCC(=O)N6CCN5CCNC5=O)c4Cl)c3Cl)ccc2N1` [Compound 385], the half-maximal inhibitory concentration (IC50) worked out at 0.264 µM.

In turn, `O=C1CCCN1CCN1C(=O)COc2cc(-c3cccc(-c4cccc(-c5ccc6c(c5)OCC(=O)N6CCN5CCCC5=O)c4Cl)c3Cl)ccc21` [Compound 394] gave an IC50 of 0.471 µM.

Turning to `O=C1CC[C@@H](CN2C(=O)COc3cc(-c4cccc(-c5cccc(-c6cc(F)c7c(c6)OCC(=O)N7C[C@@H]6CCC(=O)N6)c5Cl)c4Cl)cc(F)c32)N1` [Compound 396], the IC50 was 0.0117 µM. This IC50 lies about 40-fold lower than the previous one.

On to `N#CCN1C(=O)COc2cc(-c3cccc(-c4cccc(-c5ccc6c(c5)OCC(=O)N6CC#N)c4Cl)c3Cl)ccc21` [Compound 397, 2,2′-((2,2′-dichloro-[1,1′-biphenyl]-3,3′-diyl)bis(3-oxo-2,3-dihydro-4H-benzo[b][1,4]oxazine-7,4-diyl))diacetonitrile], for which the IC50 is 0.305 µM.

Turning to `O=C1CC[C@@H](CN2C(=O)COc3cc(-c4cccc(-c5cccc(-c6cnc7c(c6)OCC(=O)N7C[C@@H]6CCC(=O)N6)c5Cl)c4Cl)cnc32)N1` [Compound 401], the IC50 stood at 0.00978 µM. Compared with the last molecule, the IC50 is about 31-fold lower.

`CC(=O)N1CCC(N2C(=O)COc3cc(-c4cccc(-c5cccc(-c6ccc7c(c6)OCC(=O)N7C6CCN(C(C)=O)CC6)c5Cl)c4Cl)ccc32)CC1` [Compound 408]: the IC50 stood at 0.571 µM.

As to `O=C1COc2cc(-c3cccc(-c4cccc(-c5ccc6c(c5)OCC(=O)N6Cc5nn[nH]n5)c4Cl)c3Cl)ccc2N1Cc1nn[nH]n1` [Compound 412], the IC50 is at least 3 µM.

`O=C1N[C@@H](CN2C(=O)COc3cc(-c4cccc(-c5cccc(-c6ccc7c(c6)OCC(=O)N7C[C@H]6COC(=O)N6)c5Cl)c4Cl)ccc32)CO1` [Compound 413]: the concentration for half-maximal inhibition (IC50) is 0.00705 µM.

Turning to `O=C1COc2cc(-c3cccc(-c4cccc(-c5ccc6c(c5)OCC(=O)N6Cc5ncc[nH]5)c4Cl)c3Cl)ccc2N1Cc1ncc[nH]1` [Compound 415], the IC50 is 0.104 µM.

The molecule `COC(=O)N[C@H](C(=O)N1CCC[C@H]1CN1C(=O)COc2cc(-c3cccc(-c4cccc(-c5ccc6c(c5)OCC(=O)N6C[C@@H]5CCCN5C(=O)[C@@H](NC(=O)OC)C(C)C)c4Cl)c3Cl)ccc21)C(C)C` [Compound 422] yielded an IC50 of at least 3 µM.

For `N#Cc1cncc(CCN2C(=O)COc3cc(-c4cccc(-c5cccc(-c6ccc7c(c6)OCC(=O)N7CCc6cncc(C#N)c6)c5Cl)c4Cl)ccc32)c1` [Compound 427], the IC50 came to 0.0687 µM.

As for `O=C1COc2cc(-c3cccc(-c4cccc(-c5ccc6c(c5)OCC(=O)N6C[C@@H]5CCC(=O)N5)c4Cl)c3Cl)ccc2N1` [Compound 429, (S)-7-(2,2′-dichloro-3′-(3-oxo-3,4-dihydro-2H-benzo[b][1,4]oxazin-7-yl)-[1,1′-biphenyl]-3-yl)-4-((5-oxopyrrolidin-2-yl)methyl)-2H-benzo[b][1,4]oxazin-3(4H)-one], the IC50 was 0.0208 µM.

The molecule `N#Cc1cncc(CN2C(=O)COc3cc(-c4cccc(-c5cccc(-c6ccc7c(c6)OCC(=O)N7Cc6cncc(C#N)c6)c5Cl)c4Cl)ccc32)c1` [Compound 430] had an IC50 of at least 3 µM.

In turn, `O=C1CC[C@H](CN2C(=O)COc3cc(-c4cccc(-c5cccc(-c6ccc7c(c6)OCC(=O)N7C[C@H]6CCC(=O)N6)c5Cl)c4Cl)ccc32)N1` [Compound 448] had a 50% inhibitory concentration (IC50) of 0.00545 µM.

In the case of `O=C1CC(CN2C(=O)COc3cc(-c4cccc(-c5cccc(-c6ccc7c(c6)OCC(=O)N7C[C@@H]6CCC(=O)N6)c5Cl)c4Cl)ccc32)CN1` (stereo partly drawn) [Compound 450], the IC50 worked out at 0.00647 µM.

The molecule `O=C1CC[C@@H](CN2C(=O)COc3nc(-c4cccc(-c5cccc(-c6ccc7c(n6)OCC(=O)N7C[C@@H]6CCC(=O)N6)c5Cl)c4Cl)ccc32)N1` [Compound 457] displayed an IC50 of 0.00878 µM. The IC50 values of the last two molecules are within 1.5-fold of each other.

Take `CC(C)[C@H](N)C(=O)N1CCC[C@H]1CN1C(=O)COc2cc(-c3cccc(-c4cccc(-c5ccc6c(c5)OCC(=O)N6C[C@@H]5CCCN5C(=O)[C@@H](N)C(C)C)c4Cl)c3Cl)ccc21` [Compound 459]: the IC50 was 0.436 µM. This IC50 is about 50-fold higher than that of the molecule before.

For the molecule `CC(=O)NCCNCCN1C(=O)COc2cc(-c3cccc(-c4cccc(-c5ccc6c(c5)OCC(=O)N6CCNCCNC(C)=O)c4Cl)c3Cl)ccc21` [Compound 461], the IC50 is 0.00406 µM.

Regarding `O=C1CC[C@@H](CN2C(=O)COc3nc(-c4cccc(-c5cccc(-c6cnc7c(n6)OCC(=O)N7C[C@@H]6CCC(=O)N6)c5Cl)c4Cl)cnc32)N1` [Compound 466], the 50% inhibitory concentration (IC50) is 0.005 µM.

Consider `O=C(O)C1CCN(CCN2C(=O)COc3cc(-c4cccc(-c5cccc(-c6ccc7c(c6)OCC(=O)N7CCN6CCC(C(=O)O)C6)c5Cl)c4Cl)ccc32)C1` (stereo not drawn) [Compound 469], for which the half-maximal inhibitory concentration (IC50) came to 0.00402 µM. The IC50 values of the last two molecules are within 1.5-fold of each other.

`CN(CCO)CCN1C(=O)COc2cc(-c3cccc(-c4cccc(-c5ccc6c(c5)OCC(=O)N6CCN(C)CCO)c4Cl)c3Cl)ccc21` [Compound 471] displayed an IC50 of 0.0047 µM.

As for `O=C(O)[C@@H]1C[C@H](O)CN1CCN1C(=O)COc2cc(-c3cccc(-c4cccc(-c5ccc6c(c5)OCC(=O)N6CCN5C[C@@H](O)C[C@H]5C(=O)O)c4Cl)c3Cl)ccc21` [Compound 478], the IC50 worked out at 0.00876 µM. This IC50 lies about 1.9-fold higher than the previous one.

Values taken from patent US20250340529A1, “Heterocyclic Compounds as Immunomodulators of PD-L1 Interactions” (Ascletis BioScience Co., Ltd, priority 2021, published 2025).
